Values of other authors as cited in patent US20240350500A1, “PLK1 INHIBITOR IN COMBINATION WITH ANTI-ANGIOGENICS FOR TREATING METASTATIC CANCER” (CARDIFF ONCOLOGY, INC., priority 2022, published 2024).
Read-outs that look alike come from different tables or passages of the source. Each block holds one molecule with its values, some of them ahead of it.

How the values were obtained:
[1] = system: metastatic colorectal cancer; settings: 2nd line
[2] = system: cell lines, both from solid as well as hematologic tumors
[3] = system: disseminated models of AML; settings: in combination with cytarabine
PLK1 = PLK1 (Homo sapiens, UniProt P53350); settings: including other PLK members
[4] = system: HT29 human colon adenocarcinoma xenografts; settings: in combination with irinotecan, compared to each agent alone
[5] = rodent and nonrodent species
AML [6] = settings: intravenously in combination with LDAC, compared with LDAC alone; treatment naïve AML unsuitable for induction therapy
AML [7] = settings: combination with LDAC
[8] = bev naïve (without prior bevacizumab)

Chain of PLK1 (P53350 whole entry): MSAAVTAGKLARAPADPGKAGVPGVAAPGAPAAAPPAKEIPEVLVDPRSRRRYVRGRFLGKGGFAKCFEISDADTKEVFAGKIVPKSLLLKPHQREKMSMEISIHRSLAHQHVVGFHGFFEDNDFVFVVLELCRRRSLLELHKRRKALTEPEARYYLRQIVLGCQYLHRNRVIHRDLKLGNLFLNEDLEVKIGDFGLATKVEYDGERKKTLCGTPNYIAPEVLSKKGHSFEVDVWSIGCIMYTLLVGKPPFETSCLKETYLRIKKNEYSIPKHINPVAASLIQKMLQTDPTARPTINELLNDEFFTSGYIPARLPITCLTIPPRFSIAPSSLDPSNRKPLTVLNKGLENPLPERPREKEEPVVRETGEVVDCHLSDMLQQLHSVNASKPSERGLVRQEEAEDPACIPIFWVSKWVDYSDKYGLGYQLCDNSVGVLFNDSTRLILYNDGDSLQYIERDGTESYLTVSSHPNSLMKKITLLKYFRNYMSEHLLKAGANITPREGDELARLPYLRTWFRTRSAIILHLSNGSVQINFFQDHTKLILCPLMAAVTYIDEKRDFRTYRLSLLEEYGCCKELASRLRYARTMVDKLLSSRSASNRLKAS

Molecule: bevacizumab: anti-angiogenics (angiogenesis inhibitor), Avastin
mOS [1, 8]: 13.9 months
mPFS [1, 8]: 6.9 months
mOS ([1]; patients with prior bev): 12.5 months
mPFS ([1]; patients with prior bev): 6.7 months

specificity for PLK1 among a panel of 296 kinases (PLK1): high specificity
oral bioavailability [5]: good oral bioavailability
Molecule: CN1CCN(c2ccc(OC(F)(F)F)c(Nc3ncc4c(n3)-c3c(c(C(N)=O)nn3CCO)CC4)c2)CC1 [onvansertib, 1-(2-hydroxyethyl)-8-{[5-(4-methylpiperazin-1-yl)-2-(trifluoromethoxy)phenyl]amino}-4,5-dihydro-1H-pyrazolo[4,3-h]quinazoline-3-carboxamide]
cell-cycle effect ([2]; cancer cell lines): mitotic cell-cycle arrest followed by apoptosis
potency in proliferation assays ([2]; large number of cell lines): low nanomolar activity
effect on cytarabine antitumor activity [3]: significantly increased cytarabine antitumor activity
tumor growth (xenograft models of AML): inhibited
inhibition of cell proliferation (AML cell lines): inhibited cell proliferation at nanomolar concentrations
tumor regression [4]: enhanced tumor regression
primary dose-limiting toxicities (patients with advanced/metastatic solid tumors): neutropenia and thrombocytopenia
time to recovery from hematologic toxicities (reversible): ≤ 3 weeks

risk of severe infections (AML [7]): increased risk of severe infections
Molecule: CC[C@@H]1C(=O)N(C)c2cnc(Nc3ccc(C(=O)N[C@H]4CC[C@H](N5CCN(CC6CC6)CC5)CC4)cc3OC)nc2N1C(C)C [volasertib]
OS (AML [6]): significant increase in OS
benefit of the combination (AML [7]): no benefit
